From US20230248689A1, “PHARMACEUTICAL FORMULATIONS OF GRISEOFULVIN FOR LONG-TERM OCULAR DELIVERY” (Purdue Research Foundation, priority 2020, published 2023)

Experiments:
[1] = test system: human retinal endothelial cells (HREC); experiment: Long-term proliferation assay on HRECs with release samples collected over time; format: cell-based
Method: The formulations of the present invention, i.e. microparticles (MPs) or nanoparticles (NPs) of the griseofulvin (GRF) were tested for in vitro cell study, in particular long-term proliferation assay. This study provides an estimation of in vivo effect of griseofulvin formulations. To compare the long-term antiproliferative effect on human retinal endothelial cells (HREC), time averaged proliferation inhibition index (PII) was calculated (Σ AUC/time) from the plot of % proliferation at each time vs. time. The higher the PII indicating the prolonged anti-proliferative effects on HREC.
The long-term anti-proliferation effect of GRF loaded NPs from example 3B was studied, wherein GRF-PLGA-NPs were dispersed in 0.5 mL of growth media at GRF concentration ranging from 600 μM to 1200 μM. At specific time points (1, 2, 3, 4, 5, 6, 7, 10, 15, 20, and 25 days), tubes were centrifuged at 5k rpm for 5 minutes and the supernatant was collected and stored at −80° C. Pellet was redispersed in 0.5 mL fresh media, and the incubation was continued. […]
Human retinal endothelial cells (HREC) were plated in transparent 96 well plates at a density of 2500 cells per well in 100 μL of growth medium and incubated for 24 h at 37° C. […] Fluorescence intensity of each well was read with excitation and emission wavelengths of 560 nm and 590 nm, respectively. […]

[2] = test system: human retinal endothelial cells (HRECs); experiment: Anti-proliferative effect on HRECs (Alamar Blue); format: cell-based; conditions: 100 μM GRF equivalent, 48 hours
Method: Human retinal endothelial cells (HREC) were plated in transparent 96 well plates at a density of 2500 cells per well in 100 μL of growth medium and incubated for 24 h at 37° C. The medium was replaced with the samples collected at different time points. After 48 hours incubation, 11.1 μL Alamar Blue reagent was added to each well. After 4 hours incubation, plates were centrifuged at 200 g for 5 minutes, and 50 μL supernatant was transferred to black 96 well plates. Fluorescence intensity of each well was read with excitation and emission wavelengths of 560 nm and 590 nm, respectively.

## COC1=CC(=O)C[C@@H](C)[C@]12Oc1c(Cl)c(OC)cc(OC)c1C2=O [Free GRF, (2S,6′R)-7-chloro-2′,4,6-trimethoxy-6′-methyl-3H-spiro[benzofuran-2,1′-cyclohexan]-2′-ene-3,4′-dione]
[1]; release samples over the incubation period
  long-term anti-proliferative effect on HREC (in words): effective only at the first time point
[1]; Σ AUC/time from % proliferation vs. time plot, HREC
  time averaged proliferation inhibition index (PII): 13.6
[2]
  inhibited proliferation of HRECs: 53.5%
